Measured values taken from US20160151370A1, “Substituted Benzylpyrazoles” (BAYER PHARMA AKTIENGESELLSCHAFT, priority 2013, published 2016).

Key:
[1] = target: T1, catalytic domain of human Bub1 (amino acids 704-1085) (Homo sapiens, UniProt O43683); assay: Bub1 kinase assay (TR-FRET); type: biochemical; conditions: 10 μM ATP, 1 μM peptide substrate, median value, read-out: Biological Assay 1: Bub1 kinase assay median IC50
T1 construct: catalytic domain of human Bub1 (amino acids 704-1085); His6 (N); made in house; host or cells: Hi5 insect cells
T1 sequence (O43683 704-1085): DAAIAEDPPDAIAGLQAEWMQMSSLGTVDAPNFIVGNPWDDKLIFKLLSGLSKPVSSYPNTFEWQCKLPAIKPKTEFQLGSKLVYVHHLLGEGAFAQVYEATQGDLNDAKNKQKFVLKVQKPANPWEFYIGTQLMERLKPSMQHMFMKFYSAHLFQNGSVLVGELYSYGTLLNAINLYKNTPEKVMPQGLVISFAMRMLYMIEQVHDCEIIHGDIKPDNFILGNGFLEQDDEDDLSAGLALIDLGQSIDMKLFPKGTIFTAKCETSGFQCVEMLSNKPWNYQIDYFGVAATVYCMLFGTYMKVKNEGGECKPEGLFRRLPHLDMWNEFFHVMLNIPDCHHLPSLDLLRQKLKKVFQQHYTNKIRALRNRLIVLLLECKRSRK
Text: Bub1-inhibitory activities of compounds described in the present invention were quantified using a time-resolved fluorescence energy transfer (TR-FRET) kinase assay which measures phosphorylation of the synthetic peptide Biotin-Ahx-[…] (C-terminus in amide form), purchased from e.g. Biosyntan (Berlin, Germany) by the (recombinant) catalytic domain of human Bub1 (amino acids 704-1085), expressed in Hi5 insect cells with an N-terminal His6-tag and purified by affinity-(Ni-NTA) and size exclusion chromatography.
In a typical assay 11 different concentrations of each compound (0.1 nM, 0.33 nM, 1.1 nM, 3.8 nM, 13 nM, 44 nM, 0.15 μM, 0.51 μM, 1.7 μM, 5.9 μM and 20 μM) were tested in duplicate within the same microtiter plate. To this end, 100-fold concentrated compound solutions (in DMSO) were previously prepared by serial dilution (1:3.4) of 2 mM stocks in a clear low volume 384-well source microtiter plate (Greiner Bio-One, Frickenhausen, Germany), from which 50 nL of compounds were transferred into a black low volume test microtiter plate from the same supplier. Subsequently, 2 μL of Bub1 (the final concentration of Bub1 was adjusted depending on the activity of the enzyme lot in order to be within the linear dynamic range of the assay: typically ˜200 ng/mL were used) in aqueous assay buffer [50 mM Tris/HCl pH 7.5, 10 mM magnesium chloride (MgCl2), 200 mM potassium chloride (KCl), 1.0 mM dithiothreitol (DTT), 0.1 mM sodium ortho-vanadate, 1% (v/v) glycerol, 0.01% (w/v) bovine serum albumine (BSA), 0.005% (v/v) Trition X-100 (Sigma), 1× Complete EDTA-free protease inhibitor mixture (Roche)] were added to the compounds in the test plate and the mixture was incubated for 15 min at 22° C. to allow pre-equilibration of the putative enzyme-inhibitor complexes before the start of the kinase reaction, which was initiated by the addition of 3 μL 1.67-fold concentrated solution (in assay buffer) of adenosine-tri-phosphate (ATP, 10 μM final concentration) and peptide substrate (1 μM final concentration). […] Subsequently, the amount of product was evaluated by measurement of the resonance energy transfer from the Eu-chelate-antibody complex recognizing the Phosphoserine residue to the streptavidin-XL665 bound to the biotin moiety of the peptide. To this end, the fluorescence emissions at 620 nm and 665 nm after excitation at 330-350 nm were measured in a TR-FRET plate reader, e.g. a Rubystar or Pherastar (both from BMG Labtechnologies, Offenburg, Germany) or a Viewlux (Perkin-Elmer) and the ratio of the emissions (665 nm/622 nm) was taken as indicator for the amount of phosphorylated substrate. […] IC50 values were calculated by fitting the normalized inhibition data to a 4-parameter logistic equation (Minimum, Maximum, IC50, Hill; Y=Max+(Min−Max)/(1+(X/IC50)Hill)).

[2] = tested on: HeLa human cervical cancer cell line; assay: Proliferation assay (crystal violet staining); type: cell-based; conditions: 96 h, 4 days incubation, median value, read-out: Biological Assay 2: Proliferation assay (HeLa cell line) median IC50
Method: Cultivated tumor cells (cells were ordered from ATCC) were plated at a density of 3000 cells/well in a 96-well multititer plate in 200 μL of growth medium supplemented 10% fetal calf serum. After 24 hours, the cells of one plate (zero-point plate) were stained with crystal violet (see below), while the medium of the other plates was replaced by fresh culture medium (200 μL), to which the test substances were added in various concentrations (0 μM, as well as in the range of 0.001-10 μM; the final concentration of the solvent dimethyl sulfoxide was 0.5%). The cells were incubated for 4 days in the presence of test substances. Cell proliferation was determined by staining the cells with crystal violet: the cells were fixed by adding 20 μL/measuring point of an 11% glutaric aldehyde solution for 15 minutes at room temperature. After three washing cycles of the fixed cells with water, the plates were dried at room temperature. The cells were stained by adding 100 μL/measuring point of a 0.1% crystal violet solution (pH 3.0). […] Absorbtion was determined by photometry at a wavelength of 595 nm. The change of cell number, in percent, was calculated by normalization of the measured values to the absorbtion values of the zero-point plate (=0%) and the absorbtion of the untreated (0 μm) cells (=100%). The IC50 values were determined by means of a 4 parameter fit.

| Compound | IC50 [1] [nM] | IC50 [2] [nM] |
| --- | --- | --- |
| CCOc1cc(F)c(Cn2nc(-c3ncc(OCCCS(C)(=N)=O)c(Nc4ccncc4)n3)c(C)c2C2CC2)c(F)c1 (single isomer, unassigned; (+)) [Example 2-2-3, (+)-2-[5-cyclopropyl-1-(4-ethoxy-2,6-difluorobenzyl)-4-methyl-1H-pyrazol-3-yl]-5-[3-(S-methylsulfonimidoyl)propoxy]-N-(pyridin-4-yl)pyrimidin-4-amine] | 5.7 |  |
| CCOc1cc(F)c(Cn2nc(-c3ncc(OCCCS(C)(=N)=O)c(Nc4ccncc4)n3)c(C)c2C2CC2)c(F)c1 (single isomer, unassigned; (-)) [Example 2-2-2, (−)-2-[5-cyclopropyl-1-(4-ethoxy-2,6-difluorobenzyl)-4-methyl-1H-pyrazol-3-yl]-5-[3-(S-methylsulfonimidoyl)propoxy]-N-(pyridin-4-yl)pyrimidin-4-amine] | 9.5 |  |
| CCOc1cc(F)c(Cn2nc(-c3ncc(OCCCS(C)(=N)=O)c(Nc4ccncc4)n3)c(C)c2C2CC2)c(F)c1 (racemic) [Example 2-2-1, 2-[5-cyclopropyl-1-(4-ethoxy-2,6-difluorobenzyl)-4-methyl-1H-pyrazol-3-yl]-5-[3-(S-methylsulfonimidoyl)propoxy]-N-(pyridin-4-yl)pyrimidin-4-amine] | 8.4 | 8200 |
| CCOc1cc(F)c(Cn2nc(-c3ncc(OCCCS(C)(=O)=NC(=O)C(F)(F)F)c(Nc4ccncc4)n3)c(C)c2C2CC2)c(F)c1 (centres unmarked) [Example 2-1-1, N-{[3-({2-[5-cyclopropyl-1-(4-ethoxy-2,6-difluorobenzyl)-4-methyl-1H-pyrazol-3-yl]-4-(pyridin-4-ylamino)pyrimidin-5-yl}oxy)propyl](methyl)oxido-λ^6-sulfanylidene}-2,2,2-trifluoroacetamide] | 11 |  |
